Experimental data from patent US20030224034A1, “Personal care article and method for inhibiting attachment of yeast to skin” (priority 2002, published 2003).

Test system: Candida albicans (ATCC 10231)
Assay: Visual release protocol: inhibition of C. albicans attachment to skin (tape strips and cyanoacrylate skin pulls), fluorescence microscopy cell count
Format: cell-based
Settings: for % Inhibition of yeast attachment / 90 View Total (number of yeast cells) / AVG per view (number of yeast cells): 2% farnesol in TSB, 60 minutes at 33 degrees Celsius; for % Inhibition of yeast attachment: 100-((sample # of cells)/(control # of cells)x100); for 90 View Total (number of yeast cells) / AVG per view (number of yeast cells): view = 6000 um^2
Description: Candida albicans (ATCC 10231) was used in this study. C. albicans was sub-cultured onto a Sabourads medium fortified with glucose (SAB-Dex) agar plate (Becton Dickinson, Cockeysville, Md.) overnight at 37 degrees Celsius. The following day, 2-3 isolated C. albicans colonies were inoculated into 20 ml SAB-Dex broth and incubated overnight shaken at 220 rpm at 32 degrees Celsius for 18 hours. The broth culture was diluted to 1×10^5 CFU/ml with phosphate buffer (VWR Industries, Batavia, Ill.).
The following protocol was used to measure the inhibition of C. albicans to skin (skin tape strips and cyanoacrylate skin pulls) by farnesol. Skin tape strips were made by pulling D-Squame skin sampling discs (CuDerm Corporation, Dallas, Tex.) four times from adjacent adult male volar forearm sites. Cyanoacrylate pulls were done by putting a small amount of super glue on the skin then placing a glass slide on the wetted surface. The glue was allowed to dry then the slide was removed, pulling off the stratum corneum. The tape strips and glue pulls (both will be referred to as strips in subsequent descriptions) were placed into deep six-well plates (Becton Dickinson, Franklin Lakes, N.J.). The strips were then blocked with 2.0 ml of 5% Bovine Serum Albumin (BSA) (Sigma, St. Louis, Mo.) in PBS buffer (150 mM NaCl, 50 mM Potassium Phosphate (KP), pH 7.4) for 60 minutes at 33 degrees Celsius while shaking at 220 rpm.
Next, each well's fluid was removed and 1.0 ml (10^5 Colony Forming Units (CFU)/ml) C. albicans was added to each strip. Then, 1.0 ml of Trypticase Soy Broth (TSB) [Difco Labs, Detroit, Mich.] containing 2% farnesol (DRAGOCO, Totowa, N.J.) was added to each strip, and the plates incubated at 33 degrees Celsius for 60 minutes. The fluid was aspirated, and the strips were washed 3 times with 3.0 ml PBS. Both sides of each tape strip were washed with a stream of PBS then placed in fresh 6-well plates.
Each strip was fixed by adding 2.0 ml of 2.5% Glutaraldehyde (Sigma Chemical, St. Louis, Mo.) to each of the wells of the 6-well plates for 10 minutes. The tape strips were then washed 3 times with 3.0 ml distilled water and stained by adding 0.5 ml Calcofluor White (Difco, Ann Arbor, Mich.) to the wells for 10 to 15 minutes. The tape strips were again washed 3 times with distilled water and then flooded with 2 ng/ml Nile Red (Sigma Chemical, St. Louis, Mo.) and allowed to air dry.
Once the tape strips air-dried, the yeast cells were enumerated automatically utilizing a Nikon Eclipse TE 300 fluorescent microscope fitted with a DAPI excitation filter and a Triple Pass barrier filter (Tokyo, Japan). The counting procedure was automated (Table 1 and Table 2) through the use of MetaMorph (Universal Imaging, Dowingtown, Pa.) software such that each sample had 30 views. Each image view was a 6000 um^2. The total field of view was approximately 25% of the total tape strip and 75% of the cyanoacrylate pull. The percent inhibition was calculated as follows: 100-((sample # of cells)/(control # of cells)×100). Approximately 10^4 yeast cells bound to a 22-mm diameter D-Squame tape strip under these conditions.

[1] = Cyanoacrylate pull of human volar forearm skin
[2] = Tape strip of human volar forearm skin

SMILES: CC(C)=CCCC(C)=CCCC(C)=CCO [Farnesol, 3,7,11-trimethyl-2,6,10-dodecatrien-1-ol]
- % Inhibition of yeast attachment [1]: 93.8%
- % Inhibition of yeast attachment (Cyanoacrylate pull of human volar forearm skin, listed as farnesol): 94%
- 90 View Total (number of yeast cells) [1]: 955
- AVG per view (number of yeast cells) [1]: 10.6
- % Inhibition of yeast attachment [2]: 63.8%
- % Inhibition of yeast attachment (Tape strip of human volar forearm skin, listed as farnesol): 64%
- 90 View Total (number of yeast cells) [2]: 6963
- AVG per view (number of yeast cells) [2]: 77.4
- inhibition of the attachment of yeast to skin (in words) (farnesol at a concentration of 2%): effectively inhibit the attachment of yeast to skin
